These results are taken from DBAASP.

Values after ≈ are worked out from the molar mass of the structure shown.

Some test systems named below: Staphylococcus aureus; Escherichia coli; Pseudomonas aeruginosa.
What all share (experiment): ≥ marks a high value that may be exact or a test limit, other limits are often not marked, values filed in µg/mL are converted to µM
The test system of experiment [1] is Enterococcus faecalis ATCC 29212.
In experiment [2] the test system is Pseudomonas aeruginosa ATCC 27853.
Experiment [3] concerns Escherichia coli ATCC 25922.
Experiment [4] deals with Staphylococcus aureus ATCC 25923.
Experiment [5] deals with Pseudomonas aeruginosa ATCC 9027.
The test system of experiment [6] is Staphylococcus aureus ATCC 6538.
The test system of experiment [7] is Candida albicans ATCC 90028.
Experiment [8] concerns Staphylococcus aureus ATCC 29213.
Experiment [9] concerns Staphylococcus aureus ATCC 43300.
The test system of experiment [10] is Staphylococcus epidermidis ATCC 12228.

The MIC is the least concentration at which growth counts as inhibited. Read a high MIC as a less susceptible organism. For `CC[C@H](C)[C@H](NC(=O)CNC(=O)[C@H](CCCCN)NC(=O)[C@H](CC(C)C)NC(=O)[C@H](CCSC)NC(=O)[C@H](CC(N)=O)NC(=O)[C@H](CCCCN)NC(=O)[C@H](Cc1c[nH]c2ccccc12)NC(=O)[C@H](CC(C)C)NC(=O)[C@H](C)N)C(=O)NCC(=O)N[C@@H](CCCCN)C(=O)N[C@@H](CC(C)C)C(=O)N[C@@H](C)C(=O)NCC(=O)N[C@@H](CCC(N)=O)C(=O)N[C@@H](C)C(=O)N[C@@H](C)C(=O)N[C@@H](CC(C)C)C(=O)NCC(=O)N[C@@H](C)C(=O)N[C@H](C(=O)N[C@@H](CCCCN)C(=O)N[C@H](C(=O)N[C@@H](CC(C)C)C(=O)N[C@H](C(=O)NCC(=O)N[C@@H](C)C(=O)N[C@@H](CCC(=O)O)C(=O)N[C@@H](CO)C(=O)O)C(C)C)[C@@H](C)O)C(C)C` [ALWKNMLKGIGKLAGQAALGAVKTLVGAES], the MIC in experiment [1] worked out at 22 µM (≈ 65.9 µg/mL); in experiment [2], 5.4 µM (≈ 16.2 µg/mL); in experiment [3] it was 1.3 µM (≈ 3.9 µg/mL); in experiment [4] it was 2.7 µM (≈ 8.09 µg/mL).

Turning to `CC(C)C[C@H](NC(=O)[C@H](CC(C)C)NC(=O)[C@H](CCCCN)NC(=O)[C@H](CCCCN)NC(=O)[C@H](C)NC(=O)[C@H](CC(C)C)NC(=O)[C@H](CCCCN)NC(=O)[C@H](CCCCN)NC(=O)[C@H](C)NC(=O)[C@@H](N)Cc1ccccc1)C(N)=O` [FAKKLAKKLL], the MIC in [5] and in [6] was more than 172 µM throughout.

As for `CC(C)C[C@H](NC(=O)[C@H](C)NC(=O)[C@H](Cc1ccccc1)NC(=O)[C@H](CCCCN)NC(=O)[C@H](CCCCN)NC(=O)[C@H](C)NC(=O)[C@H](CC(C)C)NC(=O)[C@H](CCCCN)NC(=O)[C@H](C)NC(=O)[C@H](Cc1ccccc1)NC(=O)[C@H](CC(C)C)NC(=O)[C@H](CCCCN)NC(=O)[C@H](C)NC(=O)[C@@H](N)Cc1ccccc1)C(N)=O` [FAKLFAKLAKKFAL], the MIC is more than 125 µM in experiment [5] and 31.3 µM (≈ 50 µg/mL) in experiment [6].

On to `CC(C)C[C@H](NC(=O)[C@H](CC(C)C)NC(=O)[C@H](CCCCN)NC(=O)[C@H](CCCCN)NC(=O)[C@H](C)NC(=O)[C@H](CC(C)C)NC(=O)[C@H](CC(C)C)NC(=O)[C@H](CCCCN)NC(=O)[C@H](C)NC(=O)[C@@H](N)Cc1ccccc1)C(N)=O` [FAKLLAKKLL], for which the values for the minimal inhibitory concentration (MIC) in experiment [5] and in experiment [6] were 175 µM (≈ 200 µg/mL) and 87.4 µM (≈ 99.9 µg/mL), respectively.

With `CC(C)C[C@H](NC(=O)[C@H](CCCCN)NC(=O)[C@H](C)NC(=O)[C@H](CC(C)C)NC(=O)[C@H](CC(C)C)NC(=O)[C@H](CCCCN)NC(=O)[C@H](C)NC(=O)[C@@H](N)Cc1ccccc1)C(=O)N[C@@H](C)C(=O)N[C@@H](CCCCN)C(=O)N[C@@H](C)C(=O)N[C@@H](CCCCN)C(=O)NCC(N)=O` [FAKLLAKLAKAKG], the MIC in experiment [5] and in experiment [6] was more than 147 µM each time.

For `CC(C)C[C@H](NC(=O)[C@H](CCCCN)NC(=O)[C@H](C)NC(=O)[C@H](CCCCN)NC(=O)[C@H](C)NC(=O)[C@H](CC(C)C)NC(=O)[C@H](CCCCN)NC(=O)[C@H](C)NC(=O)[C@H](CC(C)C)NC(=O)[C@H](CC(C)C)NC(=O)[C@H](CCCCN)NC(=O)[C@H](C)NC(=O)[C@@H](N)Cc1ccccc1)C(N)=O` [FAKLLAKLAKAKL], the MIC was 35.3 µM (≈ 50 µg/mL) in experiment [5] and 10.6 µM (≈ 15 µg/mL) in [6].

Consider `CC[C@H](C)[C@H](NC(=O)[C@@H]1CCCN1C(=O)[C@H](CC(C)C)NC(=O)[C@@H](N)Cc1ccccc1)C(=O)N[C@@H](CC(C)C)C(=O)NCC(=O)N[C@@H](CCCCN)C(=O)N[C@@H](CC(C)C)C(=O)N[C@@H](CC(C)C)C(=O)N[C@@H](CO)C(=O)NCC(=O)N[C@@H](Cc1ccccc1)C(=O)N[C@@H](CC(C)C)C(N)=O` [FLPILGKLLSGFL], for which the values for the MIC in [7], in experiment [3] and in [4] were not below 80 µM, more than 160 µM and 10 µM (≈ 14.2 µg/mL), respectively.

For `CC[C@H](C)[C@H](NC(=O)CN)C(=O)NCC(=O)N[C@@H](C)C(=O)N[C@H](C(=O)N[C@@H](CC(C)C)C(=O)N[C@@H](CCCCN)C(=O)N[C@H](C(=O)N[C@@H](CC(C)C)C(=O)N[C@H](C(=O)N[C@H](C(=O)NCC(=O)N[C@@H](CC(C)C)C(=O)N[C@@H](CS)C(=O)N[C@@H](C)C(=O)N[C@@H](CC(C)C)C(=O)N[C@H](C(=O)N[C@@H](CO)C(=O)N[C@@H](Cc1c[nH]c2ccccc12)C(=O)N[C@H](C(=O)N[C@@H](CCCCN)C(=O)N[C@@H](CCCN=C(N)N)C(=O)N[C@@H](CCCCN)C(=O)N[C@@H](CCCN=C(N)N)C(=O)N[C@@H](CCC(N)=O)C(=O)N[C@@H](CCC(N)=O)C(=O)O)[C@@H](C)CC)[C@@H](C)CC)[C@@H](C)O)[C@@H](C)O)C(C)C)C(C)C` [GIGAVLKVLTTGLCALISWIKRKRQQ], the MIC in [8], in experiment [2], in experiment [9] and in [3] was 62.5 µM (≈ 178 µg/mL) in each case.

Take `CC[C@H](C)[C@H](NC(=O)CNC(C)=O)C(=O)NCC(=O)N[C@@H](CCCCN)C(=O)N[C@@H](Cc1ccccc1)C(=O)N[C@@H](CC(C)C)C(=O)N[C@@H](Cc1cnc[nH]1)C(=O)N[C@@H](CO)C(=O)N[C@@H](C)C(=O)N[C@@H](CCCCN)C(=O)N[C@@H](CCCCN)C(=O)N[C@@H](Cc1ccccc1)C(=O)NCC(=O)N[C@@H](CCCCN)C(=O)N[C@@H](C)C(=O)N[C@@H](Cc1ccccc1)C(=O)N[C@H](C(=O)NCC(=O)N[C@@H](CCC(N)=O)C(=O)N[C@H](C(=O)N[C@@H](CCSC)C(=O)N[C@@H](CC(N)=O)C(=O)N[C@@H](CO)C(N)=O)[C@@H](C)CC)C(C)C` [GIGKFLHSAKKFGKAFVGQIMNS]: the MIC in experiment [10] and in [3] was 20 µM (≈ 50.1 µg/mL) in each case.

Consider `CC[C@H](C)[C@H](NC(=O)CN)C(=O)N[C@@H](CCCCN)C(=O)N[C@@H](CCCCN)C(=O)N[C@@H](Cc1c[nH]c2ccccc12)C(=O)N1CCC[C@H]1C(=O)N[C@@H](Cc1cnc[nH]1)C(=O)N[C@@H](CCCCN)C(=O)N1CCC[C@H]1C(=O)N[C@@H](CCCCN)C(=O)N[C@@H](CCCCN)C(=O)N[C@@H](Cc1ccccc1)C(=O)NCC(=O)N[C@@H](CCCCN)C(=O)N[C@@H](CCCCN)C(=O)N[C@@H](Cc1ccccc1)C(=O)N[C@H](C(=O)N[C@@H](CCCCN)C(=O)N[C@@H](CCCCN)C(=O)N[C@H](C(=O)N[C@@H](CCCCN)C(=O)N[C@@H](CCCCN)C(=O)N[C@@H](CO)C(N)=O)[C@@H](C)CC)C(C)C` [GIKKWPHKPKKFGKKFVKKIKKS], for which the MIC stood at 5 µM (≈ 13.8 µg/mL) in [10] and 10 µM (≈ 27.7 µg/mL) in [3].

Turning to `CC[C@H](C)[C@H](NC(=O)CNC(=O)[C@H](CO)NC(=O)[C@H](CC(C)C)NC(=O)[C@@H](NC(=O)CN)[C@@H](C)CC)C(=O)N[C@@H](CC(C)C)C(=O)NCC(=O)N[C@@H](C)C(=O)NCC(=O)N[C@@H](CCCCN)C(=O)N[C@@H](CO)C(=O)N[C@@H](CC(C)C)C(=O)N[C@H](C(=O)N[C@H]1CSSC[C@@H](C(=O)O)NC(=O)[C@H](CC(C)C)NC(=O)CNC(=O)[C@H](CO)NC(=O)[C@H](CC(C)C)NC(=O)CNC1=O)C(C)C` [GILSGILGAGKSLVCGLSGLC], the values for the MIC in the experiment with Staphylococcus aureus and against Escherichia coli were more than 100 µM and 50 µM (≈ 95.8 µg/mL), respectively.

As to `CC[C@H](C)[C@H](NC(=O)CN)C(=O)N[C@@H](CCSC)C(=O)N[C@@H](CC(=O)O)C(=O)N[C@H](C(=O)N[C@H](C(=O)N[C@@H](CCCCN)C(=O)NCC(=O)N[C@@H](C)C(=O)N[C@@H](C)C(=O)N[C@@H](CCCCN)C(=O)N[C@@H](CC(=O)O)C(=O)N[C@@H](CC(C)C)C(=O)N[C@@H](C)C(=O)NCC(=O)N[C@@H](CCC(N)=O)C(=O)N[C@@H](CC(C)C)C(=O)N[C@@H](CC(C)C)C(=O)N[C@@H](CC(=O)O)C(=O)N[C@@H](CCCCN)C(=O)N[C@@H](CC(C)C)C(=O)N[C@@H](CCCCN)C(=O)N[C@H]1CSSC[C@@H](C(=O)O)NC(=O)[C@H](CCCCN)NC(=O)[C@H]([C@@H](C)O)NC(=O)[C@H]([C@@H](C)CC)NC(=O)[C@H](CCCCN)NC1=O)[C@@H](C)CC)[C@@H](C)O` [GIMDTIKGAAKDLAGQLLDKLKCKITKC], the MIC in experiment [7] was not below 150 µM; in experiment [3], 75 µM (≈ 223 µg/mL); in [4], more than 150 µM.

The compound `CC[C@H](C)[C@H](N)C(=O)N[C@H](C(=O)N[C@@H](CCCN=C(N)N)C(=O)N[C@H](C(=O)N[C@@H](C)C(=O)N[C@H](C(=O)N[C@@H](C)C(=O)N[C@@H](CC(C)C)C(=O)N[C@@H](CCCN=C(N)N)C(=O)N[C@@H](CCCN=C(N)N)C(=O)N[C@H](C(=O)N[C@@H](CCCN=C(N)N)C(N)=O)[C@@H](C)CC)C(C)C)C(C)C)C(C)C` [IVRVAVALRRIR] came in with a minimal inhibitory concentration (MIC) against Pseudomonas aeruginosa of 51.3 µM (≈ 73 µg/mL). This counts as double-digit micromolar.

`CC(C)C[C@H](NC(=O)[C@H](CCCCN)NC(=O)CNC(=O)[C@H](C)NC(=O)[C@H](CC(C)C)NC(=O)[C@H](CCCCN)NC(=O)[C@H](C)NC(=O)[C@H](CC(C)C)NC(=O)[C@H](CCCCN)NC(=O)CNC(=O)[C@H](C)NC(=O)[C@H](Cc1c[nH]c2ccccc12)NC(=O)[C@H](CCCCN)NC(=O)[C@H](C)NC(=O)[C@H](CC(C)C)NC(=O)[C@H](CCCCN)NC(=O)CNC(=O)[C@H](C)NC(=O)[C@H](CC(C)C)NC(=O)[C@@H](N)CCCCN)C(=O)N[C@@H](C)C(N)=O` [KLAGKLAKWAGKLAKLAGKLA]: the MIC stood at 3.74 µM (≈ 8 µg/mL) in the experiment with Staphylococcus aureus, 3.74 µM (≈ 8 µg/mL) against Escherichia coli and 7.49 µM (≈ 16 µg/mL) with Pseudomonas aeruginosa.
